Test results as given in patent US11504340B2, “Ocular compositions” (THE QUEEN'S UNIVERSITY OF BELFAST, priority 2017, dated 2022).

Assay: Stability of dexamethasone in phosphate buffer for long term release
Type: physicochemical

C[C@@H]1C[C@H]2[C@@H]3CCC4=CC(=O)C=C[C@]4(C)[C@@]3(F)[C@@H](O)C[C@]2(C)[C@@]1(O)C(=O)CO [dexamethasone]
stability in phosphate buffer for long term release: instability
